Assay results: the supplement of paper PMC10307832

Tests used:
Assay in all cases: relative viability (nuclei count vs DMSO), 5 days (fraction); higher = more cells survive
Shikonin + Crizotinib = compound: CC(C)=CC[C@@H](O)C1=CC(=O)c2c(O)ccc(O)c2C1=O [Shikonin] + C[C@@H](Oc1cc(-c2cnn(C3CCNCC3)c2)cnc1N)c1c(Cl)ccc(F)c1Cl [Crizotinib] (partner 1 µM)
Outline: (§1)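 One day after seeding in 1536-well plates, lung cancer cell lines were dosed by pin tool. Dosing was either single-drug or a fixed anchor-drug dose plus five library-drug doses (not always all listed) in √10 steps. After 5 days, nuclei were stained in one fix-and-stain step and counted on 4× images, and relative viability is the nuclei count of treated wells over that of vehicle wells, given as the median of duplicate plates.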

[1] = compound: CC(C)N(CCCNC(=O)Nc1ccc(C(C)(C)C)cc1)C[C@H]1O[C@@H](n2ccc3c(N)ncnc32)[C@H](O)[C@@H]1O + CC(=O)Nc1cccc(-n2c(=O)n(C3CC3)c(=O)c3c(Nc4ccc(I)cc4F)n(C)c(=O)c(C)c32)c1 [Trametinib] (partner 0.02 µM)
Outline: as §1

[2] = compound: CC(C)N(CCCNC(=O)Nc1ccc(C(C)(C)C)cc1)C[C@H]1O[C@@H](n2ccc3c(N)ncnc32)[C@H](O)[C@@H]1O + CS(=O)(=O)N1CCN(Cc2cc3nc(-c4cccc5[nH]ncc45)nc(N4CCOCC4)c3s2)CC1 [Pictilisib] (partner 1 µM)
Outline: as §1

Shikonin + Foretinib = compound: CC(C)=CC[C@@H](O)C1=CC(=O)c2c(O)ccc(O)c2C1=O [Shikonin] + COc1cc2c(Oc3ccc(NC(=O)C4(C(=O)Nc5ccc(F)cc5)CC4)cc3F)ccnc2cc1OCCCN1CCOCC1 [Foretinib] (partner 0.25 µM)
Outline: as §1

With LOU-NH91 the relative viability (Shikonin + Crizotinib; first compound 0.01 µM) was 0.737, the relative viability (Shikonin + Crizotinib; first compound 0.1 µM) was 0.686 and the relative viability (Shikonin + Crizotinib; first compound 0.3162 µM) was 0.775. The relative viability (Shikonin + Crizotinib; first compound 1 µM) was 0.737, the relative viability ([1]; first compound 0.08 µM) was 0.788 and the relative viability ([1]; first compound 0.253 µM) was 0.768. It also gave a relative viability ([1]; first compound 2.53 µM) of 0.824, a relative viability ([1]; first compound 8 µM) of 0.763 and a relative viability ([2]; first compound 0.08 µM) of 0.537. It also gave a relative viability ([2]; first compound 0.253 µM) of 0.527, a relative viability ([2]; first compound 2.53 µM) of 0.556 and a relative viability ([2]; first compound 8 µM) of 0.545. The relative viability (Shikonin + Foretinib; first compound 0.01 µM) was 0.955, the relative viability (Shikonin + Foretinib; first compound 0.1 µM) was 0.934 and the relative viability (Shikonin + Foretinib; first compound 0.3162 µM) was 1.04. The relative viability (Shikonin + Foretinib; first compound 1 µM) was 0.9.

With NCI-H322M the relative viability (Shikonin + Crizotinib; first compound 0.01 µM) was 0.866, the relative viability (Shikonin + Crizotinib; first compound 0.1 µM) was 0.997 and the relative viability (Shikonin + Crizotinib; first compound 0.3162 µM) was 0.855. For the same cell line, the relative viability (Shikonin + Crizotinib; first compound 1 µM) was 0.882, the relative viability ([1]; first compound 0.08 µM) was 0.5 and the relative viability ([1]; first compound 0.253 µM) was 0.533. The relative viability ([1]; first compound 0.8 µM) was 0.544, the relative viability ([1]; first compound 2.53 µM) was 0.475 and the relative viability ([1]; first compound 8 µM) was 0.517. It also gave a relative viability ([2]; first compound 0.08 µM) of 0.54, a relative viability ([2]; first compound 0.253 µM) of 0.478 and a relative viability ([2]; first compound 0.8 µM) of 0.566. For the same cell line, the relative viability ([2]; first compound 2.53 µM) was 0.44, the relative viability ([2]; first compound 8 µM) was 0.57 and the relative viability (Shikonin + Foretinib; first compound 0.01 µM) was 0.996. The relative viability (Shikonin + Foretinib; first compound 0.1 µM) was 1.37, the relative viability (Shikonin + Foretinib; first compound 0.3162 µM) was 1.06 and the relative viability (Shikonin + Foretinib; first compound 1 µM) was 0.99.

In the case of HCC-827, the relative viability (Shikonin + Crizotinib; first compound 0.01 µM) is reported as 0.939, the relative viability (Shikonin + Crizotinib; first compound 0.1 µM) is reported as 0.974 and the relative viability (Shikonin + Crizotinib; first compound 0.3162 µM) is reported as 0.933. It also gave a relative viability (Shikonin + Crizotinib; first compound 1 µM) of 0.935, a relative viability ([1]; first compound 0.08 µM) of 0.499 and a relative viability ([1]; first compound 0.253 µM) of 0.473. It also gave a relative viability ([1]; first compound 0.8 µM) of 0.572, a relative viability ([1]; first compound 2.53 µM) of 0.537 and a relative viability ([1]; first compound 8 µM) of 0.505. For the same cell line, the relative viability ([2]; first compound 0.08 µM) was 0.951, the relative viability ([2]; first compound 0.253 µM) was 1.1 and the relative viability ([2]; first compound 0.8 µM) was 0.886. It also gave a relative viability ([2]; first compound 2.53 µM) of 1.07, a relative viability ([2]; first compound 8 µM) of 0.9 and a relative viability (Shikonin + Foretinib; first compound 0.01 µM) of 0.976. It also gave a relative viability (Shikonin + Foretinib; first compound 0.1 µM) of 1.15, a relative viability (Shikonin + Foretinib; first compound 0.3162 µM) of 1.06 and a relative viability (Shikonin + Foretinib; first compound 1 µM) of 1.08.

For NCI-H1975, the relative viability (Shikonin + Crizotinib; first compound 0.01 µM) was 1.07, the relative viability (Shikonin + Crizotinib; first compound 0.1 µM) was 1.18 and the relative viability (Shikonin + Crizotinib; first compound 0.3162 µM) was 1.09. The relative viability (Shikonin + Crizotinib; first compound 1 µM) was 0.959, the relative viability ([1]; first compound 0.08 µM) was 0.347 and the relative viability ([1]; first compound 0.253 µM) was 0.29. It also gave a relative viability ([1]; first compound 0.8 µM) of 0.167, a relative viability ([1]; first compound 2.53 µM) of 0.308 and a relative viability ([1]; first compound 8 µM) of 0.32. The relative viability ([2]; first compound 0.08 µM) was 0.289, the relative viability ([2]; first compound 0.253 µM) was 0.268 and the relative viability ([2]; first compound 0.8 µM) was 0.197. For the same cell line, the relative viability ([2]; first compound 2.53 µM) was 0.271, the relative viability ([2]; first compound 8 µM) was 0.289 and the relative viability (Shikonin + Foretinib; first compound 0.01 µM) was 1. The relative viability (Shikonin + Foretinib; first compound 0.1 µM) was 0.921, the relative viability (Shikonin + Foretinib; first compound 0.3162 µM) was 0.947 and the relative viability (Shikonin + Foretinib; first compound 1 µM) was 0.973.

Work on NCI-H1651 yielded a relative viability (Shikonin + Crizotinib; first compound 0.01 µM) of 0.857, a relative viability (Shikonin + Crizotinib; first compound 0.1 µM) of 0.831 and a relative viability (Shikonin + Crizotinib; first compound 0.3162 µM) of 0.883. The relative viability (Shikonin + Crizotinib; first compound 1 µM) was 0.876, the relative viability ([1]; first compound 0.08 µM) was 0.84 and the relative viability ([1]; first compound 0.253 µM) was 0.85. It also gave a relative viability ([1]; first compound 0.8 µM) of 0.795, a relative viability ([1]; first compound 2.53 µM) of 0.859 and a relative viability ([1]; first compound 8 µM) of 0.894. The relative viability ([2]; first compound 0.08 µM) was 0.601, the relative viability ([2]; first compound 0.253 µM) was 0.567 and the relative viability ([2]; first compound 0.8 µM) was 0.498. The relative viability ([2]; first compound 2.53 µM) was 0.565, the relative viability ([2]; first compound 8 µM) was 0.6 and the relative viability (Shikonin + Foretinib; first compound 0.01 µM) was 0.883. It also gave a relative viability (Shikonin + Foretinib; first compound 0.1 µM) of 0.758, a relative viability (Shikonin + Foretinib; first compound 0.3162 µM) of 0.93 and a relative viability (Shikonin + Foretinib; first compound 1 µM) of 0.714.

In the case of NCI-H460, the relative viability (Shikonin + Crizotinib; first compound 0.01 µM) is reported as 1.37, the relative viability (Shikonin + Crizotinib; first compound 0.1 µM) is reported as 1.38 and the relative viability (Shikonin + Crizotinib; first compound 0.3162 µM) is reported as 1.26. It also gave a relative viability (Shikonin + Crizotinib; first compound 1 µM) of 0.884, a relative viability ([1]; first compound 0.08 µM) of 0.103 and a relative viability ([1]; first compound 0.253 µM) of 0.0737. The relative viability ([1]; first compound 0.8 µM) was 0.0752, the relative viability ([1]; first compound 2.53 µM) was 0.127 and the relative viability ([1]; first compound 8 µM) was 0.129. The relative viability ([2]; first compound 0.08 µM) was 0.305, the relative viability ([2]; first compound 0.253 µM) was 0.391 and the relative viability ([2]; first compound 0.8 µM) was 0.335. For the same cell line, the relative viability ([2]; first compound 2.53 µM) was 0.381, the relative viability ([2]; first compound 8 µM) was 0.38 and the relative viability (Shikonin + Foretinib; first compound 0.01 µM) was 1.09. It also gave a relative viability (Shikonin + Foretinib; first compound 0.1 µM) of 0.797, a relative viability (Shikonin + Foretinib; first compound 0.3162 µM) of 1.12 and a relative viability (Shikonin + Foretinib; first compound 1 µM) of 0.994.

Cell Line LCLC-103H has a relative viability (Shikonin + Crizotinib; first compound 0.01 µM) of 0.953, a relative viability (Shikonin + Crizotinib; first compound 0.1 µM) of 1 and a relative viability (Shikonin + Crizotinib; first compound 0.3162 µM) of 1.13. The relative viability (Shikonin + Crizotinib; first compound 1 µM) was 1.06, the relative viability ([1]; first compound 0.08 µM) was 0.679 and the relative viability ([1]; first compound 0.253 µM) was 0.708. For the same cell line, the relative viability ([1]; first compound 0.8 µM) was 0.662, the relative viability ([1]; first compound 2.53 µM) was 0.653 and the relative viability ([1]; first compound 8 µM) was 0.679. For the same cell line, the relative viability ([2]; first compound 0.08 µM) was 0.639, the relative viability ([2]; first compound 0.253 µM) was 0.522 and the relative viability ([2]; first compound 0.8 µM) was 0.703. The relative viability ([2]; first compound 2.53 µM) was 0.551, the relative viability ([2]; first compound 8 µM) was 0.716 and the relative viability (Shikonin + Foretinib; first compound 0.01 µM) was 0.875. For the same cell line, the relative viability (Shikonin + Foretinib; first compound 0.1 µM) was 0.847, the relative viability (Shikonin + Foretinib; first compound 0.3162 µM) was 0.953 and the relative viability (Shikonin + Foretinib; first compound 1 µM) was 0.942.

LCLC-97TM1 was tested, and the relative viability (Shikonin + Crizotinib; first compound 0.01 µM) was 0.573, the relative viability (Shikonin + Crizotinib; first compound 0.1 µM) was 0.46 and the relative viability (Shikonin + Crizotinib; first compound 0.3162 µM) was 0.3. It also gave a relative viability (Shikonin + Crizotinib; first compound 1 µM) of 0.247, a relative viability ([1]; first compound 0.08 µM) of 0.179 and a relative viability ([1]; first compound 0.253 µM) of 0.202. For the same cell line, the relative viability ([1]; first compound 0.8 µM) was 0.184, the relative viability ([1]; first compound 2.53 µM) was 0.193 and the relative viability ([1]; first compound 8 µM) was 0.187. The relative viability ([2]; first compound 0.08 µM) was 0.184, the relative viability ([2]; first compound 0.8 µM) was 0.147 and the relative viability ([2]; first compound 2.53 µM) was 0.202. For the same cell line, the relative viability ([2]; first compound 8 µM) was 0.178, the relative viability (Shikonin + Foretinib; first compound 0.01 µM) was 0.949 and the relative viability (Shikonin + Foretinib; first compound 0.1 µM) was 1.02. The relative viability (Shikonin + Foretinib; first compound 0.3162 µM) was 0.912 and the relative viability (Shikonin + Foretinib; first compound 1 µM) was 0.962.

Cell Line PC-14 has a relative viability (Shikonin + Crizotinib; first compound 0.01 µM) of 0.984, a relative viability (Shikonin + Crizotinib; first compound 0.1 µM) of 1.02 and a relative viability (Shikonin + Crizotinib; first compound 0.3162 µM) of 0.841. The relative viability (Shikonin + Crizotinib; first compound 1 µM) was 1.03, the relative viability ([1]; first compound 0.08 µM) was 0.648 and the relative viability ([1]; first compound 0.253 µM) was 0.701. For the same cell line, the relative viability ([1]; first compound 0.8 µM) was 0.842, the relative viability ([1]; first compound 2.53 µM) was 0.718 and the relative viability ([1]; first compound 8 µM) was 0.558. For the same cell line, the relative viability ([2]; first compound 0.08 µM) was 0.657, the relative viability ([2]; first compound 0.253 µM) was 0.528 and the relative viability ([2]; first compound 0.8 µM) was 0.795. The relative viability ([2]; first compound 2.53 µM) was 0.882, the relative viability ([2]; first compound 8 µM) was 0.57 and the relative viability (Shikonin + Foretinib; first compound 0.01 µM) was 0.914. The relative viability (Shikonin + Foretinib; first compound 0.1 µM) was 1, the relative viability (Shikonin + Foretinib; first compound 0.3162 µM) was 1.15 and the relative viability (Shikonin + Foretinib; first compound 1 µM) was 1.09.
